Results as given in PubChem BioAssay (NCI).
Where “and” joins values, the source holds several entries; their conditions need not be identical. Equal entries are not always repeated.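 A five-concentration, 48-hour dose response in 96-well plates underlies each endpoint, interpolated linearly between surrounding concentrations. Abbreviation: GI50, concentration required for 50% inhibition of growth. Definition used: TGI = concentration required for complete inhibition of growth.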

Columns and labels:
Experiment in all cases: NCI tumour cell line growth inhibition, 48 h
MCF7 breast = test system: MCF7 breast
MALME-3M melanoma = test system: MALME-3M melanoma
RXF 393 renal = test system: RXF 393 renal
OVCAR-4 ovarian = test system: OVCAR-4 ovarian
IGROV1 ovarian = test system: IGROV1 ovarian
NCI/ADR-RES ovarian = test system: NCI/ADR-RES ovarian
HL-60(TB) leukemia = test system: HL-60(TB) leukemia
COLO 205 colon = test system: COLO 205 colon
HCT-116 colon = test system: HCT-116 colon
SK-MEL-2 melanoma = test system: SK-MEL-2 melanoma

SMILES	GI50 (MCF7 breast)	TGI (MCF7 breast) [µM]	GI50 (MALME-3M melanoma)	TGI (MALME-3M melanoma) [µM]	GI50 (RXF 393 renal) [µM]	TGI (RXF 393 renal)	GI50 (OVCAR-4 ovarian)	TGI (OVCAR-4 ovarian) [µM]	GI50 (IGROV1 ovarian)	TGI (IGROV1 ovarian) [µM]	GI50 (NCI/ADR-RES ovarian)	TGI (NCI/ADR-RES ovarian) [µM]	GI50 (HL-60(TB) leukemia)	TGI (HL-60(TB) leukemia) [µM]	GI50 (COLO 205 colon)	TGI (COLO 205 colon)	GI50 (HCT-116 colon)	TGI (HCT-116 colon) [µM]	GI50 (SK-MEL-2 melanoma)	TGI (SK-MEL-2 melanoma) [µM]
CS(=O)(=O)c1ccc(-c2[nH]c3ccc(F)cc3c2/C=N/NC(N)=S)cc1	2.1 µM	18.7	7.83 µM	41	1.21	63.1 µM	13.4 µM	> 100	4.95 µM	> 100	1.17 µM	> 100	0.396 µM	5.05	1.47 µM	5.14 µM	0.437 µM	> 100	10.6 µM	> 100
O=c1cc(-c2ccccc2)nc2cc(-c3ccco3)[nH]n12	0.554 µM	> 100	3.47 µM	94.5	18.9	> 100 µM	23 µM	> 100	7.91 µM	60	11.4 µM	50.9	11.1 µM	> 100	6.65 µM	44 µM	15.7 µM	> 100	6.53 µM	54.2
COC(=O)c1cc(NC(=O)CN(CCN(CC(=O)O)CC(=O)Nc2ccc(O)c(C(=O)OC)c2)CC(=O)O)ccc1O	33.5 µM	> 100	> 100 µM	> 100	> 100	> 100 µM	> 100 µM	> 100	> 100 µM	> 100	> 100 µM	> 100	42.2 µM	> 100	72 µM	> 100 µM	43.9 µM	> 100	> 100 µM	> 100
Cc1nc2sc(C(=O)Nc3cccc(Cl)c3C)c(N)c2cc1C(=O)c1ccccc1	0.168 µM	> 50	0.811 µM	> 50	0.198	–	1.08 µM	> 50	0.419 µM	> 50	0.192 µM	–	0.147 µM	–	0.293 µM	5.02 µM	0.22 µM	> 50	0.329 µM	> 50
O=C(Nc1cccc(-n2cc(-c3ccncc3)c(-c3ccc(O)c(Cl)c3)n2)c1)c1ccc(N2CCOCC2)c(C(F)(F)F)c1	2.03 µM	> 50	2.8 µM	> 50	0.283	2.25 µM	> 50 µM	> 50	> 50 µM	> 50	4.24 µM	> 50	1.2 µM	3.15	4.62 µM	> 50 µM	2.35 µM	> 50	34 µM	> 50
Cc1ccc(C)c(N2C(=O)C(=O)c3c(C)ccc(C)c32)c1	–	59	–	96.5	–	> 100 µM	–	> 100	–	43.4	–	62.9	–	> 100	–	> 100 µM	–	32	–	68.4
CCNC(=O)c1ccc2c(c1)nc(-c1ccc(Cl)cc1)n2-c1cc(C(C)(C)C)[nH]n1	2.68 µM	10.5	3.47 µM	17.2	1.81	5.55 µM	5.43 µM	> 100	5.22 µM	64.8	2.54 µM	9.33	2.72 µM	7.6	3.5 µM	14.4 µM	3.17 µM	12.3	2.81 µM	8.15
NCC(=O)NC(CO)C(=O)O (stereo unspecified)	–	> 100	–	> 100	–	> 100 µM	–	> 100	–	> 100	–	> 100	–	> 100	–	> 100 µM	–	> 100	–	> 100
CC#CC(=O)N[C@H]1CCCN(c2c(F)cc(C(N)=O)c3[nH]c(C)c(C)c23)C1	17.3 µM	36	16.2 µM	34.3	12.6	26.6 µM	22.5 µM	81.3	14 µM	31.6	19.9 µM	49.6	21.4 µM	46	21.3 µM	47 µM	16 µM	31.2	16.4 µM	35.7
COc1cc(/C=N/Nc2ncnc3c2cnn3Cc2ccccc2)ccc1O	> 18 µM	> 25	7.14 µM	> 25	4.7	19.2 µM	5.05 µM	15.3	14.8 µM	> 25	7.35 µM	> 25	> 18.5 µM	> 25	10.6 µM	> 25 µM	14 µM	> 25	16.7 µM	> 25
CCCCC/C=C\C/C=C/CCCCCCCCNC(=O)Nc1ccc([N+](=O)[O-])cc1	23.7 µM	> 100	25.2 µM	84.4	24.1	73.8 µM	13.5 µM	> 100	26.4 µM	> 100	7.8 µM	> 100	19.9 µM	47.5	15 µM	28.9 µM	4.17 µM	35.6	32.3 µM	> 100
COc1cc(C(=O)Nc2cc(O)c(C/C=C(\C)CCC=C(C)C)c(O)c2)cc2c1O[C@]1(C)CC[C@@H](O)C(C)(C)[C@H]1C2	0.0507 µM and 0.104 µM	12.3	0.3 µM and 1.24 µM	7.46	0.00419	0.0809 µM and 0.17 µM	5.3 µM and 3.14 µM	32	3.37 µM and 0.881 µM	19.5	9.22 µM and 6.62 µM	> 76.4	0.00716 µM and 0.0699 µM	–	0.386 µM and 0.678 µM	4.25 µM and 5.32 µM	0.143 µM and 0.185 µM	7.11	0.0833 µM and 0.215 µM	3.08
